Key:
Adenosine receptor A1 = molecular target: T1, Adenosine receptor A1 (Rattus norvegicus, UniProt P25099); assay: biochemical
T1 sequence (P25099 whole entry): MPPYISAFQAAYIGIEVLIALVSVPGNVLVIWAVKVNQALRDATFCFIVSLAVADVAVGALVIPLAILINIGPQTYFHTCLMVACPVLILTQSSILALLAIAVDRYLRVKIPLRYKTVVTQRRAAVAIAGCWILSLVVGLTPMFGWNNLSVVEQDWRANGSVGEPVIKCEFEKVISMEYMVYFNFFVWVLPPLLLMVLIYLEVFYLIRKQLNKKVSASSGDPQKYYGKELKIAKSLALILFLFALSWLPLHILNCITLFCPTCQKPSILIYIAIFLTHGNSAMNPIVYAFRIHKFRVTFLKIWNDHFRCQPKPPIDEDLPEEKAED
Description: Binding affinity against Adenosine A1 receptor from rat cerebral cortex was determined using [3H]DPCPX as radioligand

Mus musculus = assay: Dose required for oral activity against mice catalepsy induced by 3 mg/kg haloperidol after s.c. administration; format: functional
Adenosine receptor A2a = Adenosine receptor A2a (Rattus norvegicus, UniProt P30543)
Adenosine receptor A2a, sequence (P30543 whole entry): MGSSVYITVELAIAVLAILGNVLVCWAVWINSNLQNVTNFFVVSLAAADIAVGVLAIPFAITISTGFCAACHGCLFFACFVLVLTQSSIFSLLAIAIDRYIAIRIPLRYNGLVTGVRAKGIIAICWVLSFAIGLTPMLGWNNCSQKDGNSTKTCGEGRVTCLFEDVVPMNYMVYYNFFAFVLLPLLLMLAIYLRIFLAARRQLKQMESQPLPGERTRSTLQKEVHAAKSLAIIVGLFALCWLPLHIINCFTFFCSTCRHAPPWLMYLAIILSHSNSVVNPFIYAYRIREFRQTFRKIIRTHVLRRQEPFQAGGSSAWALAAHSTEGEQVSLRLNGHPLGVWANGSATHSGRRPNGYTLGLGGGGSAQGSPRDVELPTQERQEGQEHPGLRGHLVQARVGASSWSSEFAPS
Description: Binding affinity against Adenosine A2a receptor determined using [3H]ZM-241385 as radioligand

Ki (Adenosine receptor A1) [nM] | Ki (Adenosine receptor A2a) [nM] | Compound | Dose (Mus musculus) [mg/kg]
1100 |  | Nc1nc(NCCN2CCN(c3ccc(F)cc3F)CC2)nc2nc(-c3ccco3)nn12 | 10
> 500 | 93 | Nc1nc(NCCCN2CCN(c3ccc(F)cc3F)CC2)nc2nc(-c3ccco3)nn12 | 
1500 | 11 | CN(CCN1CCN(c2ccccc2)CC1)c1nc(N)n2nc(-c3ccco3)nc2n1 | 3
> 500 |  | Nc1nc(NCCCN2CCN(c3ccccc3)CC2)nc2nc(-c3ccco3)nn12 | 
> 500 | 22 | Nc1nc(NCCN2CCN(c3ccccc3)CC2)nc2nc(-c3ccco3)nn12 | >10
> 500 | 24 | Nc1nc(NCCN2CCN(c3c(F)cc(F)cc3F)CC2)nc2nc(-c3ccco3)nn12 | 

The next lines start with the compound.

Compound | Ki (Adenosine receptor A1) [nM] | Ki (Adenosine receptor A2a) [nM] | Dose (Mus musculus) [mg/kg]
CN(CCN1CCN(c2ccc(F)cc2F)CC1)c1nc(N)n2nc(-c3ccco3)nc2n1 |  |  | 3
Nc1nc(NCCCN2CCN(c3c(F)cc(F)cc3F)CC2)nc2nc(-c3ccco3)nn12 | > 500 | 100 | 
Nc1nc(NCCN2CCN(c3c(F)cc(F)cc3F)CC2)cc2nc(-c3ccco3)nn12 | > 500 | 92 | 
CN(CCN1CCN(c2c(F)cc(F)cc2F)CC1)c1cc2nc(-c3ccco3)nn2c(N)n1 | 790 | 24 | 
Nc1nc(N2CCN(c3c(F)cc(F)cc3F)CC2)nc2nc(-c3ccco3)nn12 |  | 29 | 
Nc1nc(NCCN2CCN(c3ccc(F)cc3F)CC2)cc2nc(-c3ccco3)nn12 | 2600 | 55 | >10
CN(CCN1CCN(c2ccc(F)cc2F)CC1)c1cc2nc(-c3ccco3)nn2c(N)n1 | 750 |  | 3
